The source of these data is a melting point compilation (Tetko et al.; mined from patent text by program, amines drawn as free bases though some values may be those of a salt).

Bounds are passed on as bounds.

As to `COCc1nc2c(N)nc3cc(CCC(N)=O)ccc3c2n1CC(C)(C)O`, the melting point is 228 to 230 °C.

`CCOC(=O)c1nnc2ccc(C#N)cc2c1O` yielded a melting point of 259 to 261 °C.

Turning to `Cc1cc(C)cc(Sc2cc(=O)[nH]c(C)c2CO)c1`, the melting point fell in the range of 268 to 270 °C.

On to `CCn1cc2c(n1)c(Cl)nc1cc(OCc3ccccc3)ccc12`, for which the melting point was in the range of 155 to 157 °C.

In turn, `CN(C)CC(C)(C)Oc1cnc(Nc2cc(-c3cccc(-n4ncc5cc(C(C)(C)C)cc(F)c5c4=O)c3CO)nn(C)c2=O)cn1` registered a melting point of 235 to 240 °C.

For `Cc1cc(C)cc(CCCn2c(=O)c3c(Cl)cc(Cl)cc3n(Cc3ccccc3)c2=O)c1`, the melting point lay within 144 to 147 °C.

In turn, `C#CCN(c1ccc(C(=O)OC(C)(C)C)c(F)c1)C1CCc2cc3nc(C)[nH]c(=O)c3cc21` (racemic) yielded a melting point of 248 to 250 °C.

Consider `CCCN(CCC)C1CCC2=C(CCCC2=NO)C1` (stereo not given), for which the melting point is 99 to 102 °C.

`O=C(CNC(=O)c1ccc(N2CCN(C(=O)c3ccccc3C(F)(F)F)CC2)nn1)c1ccccc1` registered a melting point of 196 to 198 °C.

Regarding `CC(C)(C)OC(=O)Nc1cc(N2CCOCC2)c(C#Cc2ccccc2)cc1N`, the melting point was in the range of 174 to 176 °C.

`Cc1nc(C)n(-c2cc(C)c3[nH]c(=O)ccc3c2)c1I` yielded a melting point of 242 to 245 °C.

For the compound `CCN1CCC(NC(=O)Cn2c(-c3ccc(Br)cc3)nc3cccnc32)C1` (stereo not given), the melting point lay within 202 to 204 °C.

The compound `CC(C)CCS(=O)(=O)NC(=O)CCc1cc(OC(C)C)nn1Cc1ccc(Cl)cc1Cl` came in with a melting point of 143 to 145 °C.

For `Cc1oc(-c2ccccc2)nc1COc1ccc(CCn2cc(CCC(=O)O)c(-c3ccccc3)n2)cc1`, the melting point was 85 to 86 °C.

The compound `CS(=O)(=O)c1ccc(-c2nn(CCCc3ccccc3)c(=O)cc2-c2ccc(Cl)cc2)cc1` showed a melting point of 70.2 to 71.6 °C.

Turning to `CS(=O)(=O)N[C@@H](CCCCNC(=O)OCc1ccccc1)C(=O)O`, the melting point was 83.5 to 84 °C.

For `O=C(O)Cc1ccc(Oc2ccc(Cl)cc2)cc1`, the melting point lay within 98 to 100 °C.

With `Cc1ccccc1NC(=O)NC1N=C(c2ccccc2F)c2ccccc2N(CC(=O)N2CC3CCC(CC3)C2)C1=O` (racemic), the melting point lay in the range of 167 to 172 °C.

Turning to `CCn1c(=O)c2[nH]c(/C=C/c3cccc(OC)c3OC)nc2n(CC)c1=O`, the melting point lay within 288 to 289 °C.

As for `CS(=O)(=O)C(=C1CN(C(c2ccccc2)c2ccccc2)C1)c1ccc(Cl)cc1`, the melting point was 192 °C.

`COc1ccc(C2C(C(=O)/C=C/c3ccccc3)C(=O)CC(c3ccccc3)C2[N+](=O)[O-])cc1` (stereo not given) registered a melting point of 108 to 110 °C.

`CCCc1nc(CC)c(C(=O)O)n1Cc1ccc(C2(C(=O)O)CC=CC2)s1`: the melting point fell in the range of 157 to 161 °C.

Compound `CNc1nn2c(N)nnc2c2c1CCCC2` came in with a melting point of 295 to 297 °C.

Compound `COc1ccc(CCN(CCC2CCCCC2)C(=O)CCCCC(N)=O)cc1OC` displayed a melting point of 158 to 160 °C.

`Cc1cccc2c1N(CC(=O)N1CC3CCC(CC3)C1)C(=O)C(NC(=O)Nc1cccc(C=NO)c1)N=C2c1ccccc1F` (stereo not given) returned a melting point of 196 to 199 °C.

`c1ccc(N=C(NC(=Nc2ccccc2)N2CCCCO2)c2ccccc2)cc1` yielded a melting point of 187 to 190 °C.

Compound `CCc1ccc(S(=O)(=O)O)cc1` yielded a melting point of 45.1 to 46.5 °C.

`Fc1ccc(-c2cc(Cl)c3cc(Cl)ccc3n2)cc1` came in with a melting point of 150 to 156 °C.

`COc1cccc(NN=C(Sc2ccc(Cl)cc2)C(C)=O)c1`: the melting point lay within 107 to 108 °C.

`COc1ccc(CCN(C)CCCCc2ccc(NC(=O)c3cccc4c(=O)c5ccccc5oc34)cc2)cc1OC` showed a melting point of 102 °C.

With `COc1ccc(C(c2ccc(F)cc2)C(c2ccc(OC)cc2)C(F)(F)F)cc1` (stereo not given), the melting point lay in the range of 132 to 135 °C.

With `Nc1cnc(F)c(Br)c1`, the melting point is 91 to 92 °C.

`Clc1cccc(OC2CCN(CCc3c[nH]c4ccccc34)CC2)c1` came in with a melting point of 120 to 123 °C.

As for `BrCCCCOc1ccc2c(c1)OCO2`, the melting point was in the range of 52 to 54 °C.

The compound `CCOC(=O)c1c(-c2ccccc2Cl)c2cc(CC)sc2[nH]c1=O` displayed a melting point of 126 to 127 °C.

Compound `COc1ccc(-c2nc(SC)ncc2-c2ccc(Cl)cc2)cc1` gave a melting point of 127 to 130 °C.

With `COc1ccc(C2Sc3ccccc3N(CCN(C)C)C(=O)C2OC(=O)c2ccccc2[N+](=O)[O-])cc1` (stereo not given), the melting point lay in the range of 161 to 162 °C.

`Cn1nc(OCc2ccccc2)cc1C=O` came in with a melting point of 49.5 to 50.5 °C.

With `Cc1ccc(CC2CCN(C(=O)NC(=O)c3ccc(OCc4ccccc4)cc3)CC2)cc1`, the melting point is 204 to 208 °C.

For `Cc1cc(Nc2ccnc(Nc3ccc(S(=O)(=O)N(CCN)C4CCNCC4)cc3)n2)ccc1F`, the melting point fell in the range of 134 to 135 °C.

The compound `O=c1c(-c2ccccn2)c(O)c2cccnc2n1-c1ccccc1` returned a melting point of 332 to 333 °C.

For the compound `CC(ON1C(C)(C)CC(O)CC1(C)C)C(=O)NCCCN(C)C` (stereo not given), the melting point fell in the range of 85 to 88 °C.

`O=C1NCN(c2ccccc2)C12CCCCC2` returned a melting point of 193 to 195 °C.

In the case of `Cc1ccccc1N1CCN(CC(O)c2ccc(N3CCCNC3=O)cc2)CC1` (stereo not given), the melting point fell in the range of 234 to 235 °C.

`NOC(=O)C(=C(C(=O)C(F)(F)F)c1ccccc1)c1ccccc1` came in with a melting point of 175 °C.

Regarding `COC1(C)CCc2ccc(O)cc2O1` (stereo not given), the melting point was 107 to 108 °C.

`CC(Cl)(Cl)C(NC(=O)c1cccc(Cl)c1)NC(=NC#N)Nc1ccccc1F` (stereo not given) displayed a melting point of 136 to 138 °C.

`Cc1cccc(-c2nc3ccc(Cl)cn3c2-c2ccnc(-c3ccc(CN4CCCC4)cc3)c2)n1` showed a melting point of 134 °C.

In turn, `O=S(=O)(Nc1cccc(Br)c1)c1cc(S(=O)(=O)Nc2cccc(Br)c2)c2cc(O)ccc2c1` gave a melting point of 198 to 200 °C.

For the compound `CC(C)c1ccc(C(=O)NCCCCN2CCN(C(c3ccccc3)c3ccccc3)CC2)c(O)n1`, the melting point fell in the range of 184 to 186 °C.

In turn, `C#CCCCN=C(NC#N)NCCSCc1[nH]cnc1C` showed a melting point of 99 to 103 °C.

On to `COc1ccc2c(-c3ccc(OC(C)=O)cc3)c(-c3ccc(C(F)(F)F)cc3)c(=O)oc2c1`, for which the melting point was 198 to 201 °C.

Compound `N=C(NC=Cc1ccc([N+](=O)[O-])cc1)c1ccc([N+](=O)[O-])cc1` returned a melting point of 214 to 216 °C.

In turn, `CON(C)c1nc(C)cc(O)n1` showed a melting point of 128 to 129 °C.

The compound `COc1ccccc1C1(O)c2cc(NC(=O)CC(C)(C)C)c(C)c(C)c2OC1(C)C` (stereo not given) gave a melting point of 168 to 169 °C.

`CC(C)C(=O)N(C(=O)OC(C)(C)C)C(CC(N)C(=O)OCc1ccccc1)C(N)=O` (stereo not given) had a melting point of 112 to 113 °C.

The compound `O=C1C(=O)N(Cc2ccc(Br)cc2)c2ccc(S(=O)(=O)N3CCCC3COc3ccccc3)cc21` (stereo not given) registered a melting point of 112 to 113 °C.

For `COC(=O)c1ccccc1C1=NC(C)(C(C)C)C(=O)N1Sc1ccccc1[N+](=O)[O-]` (stereo not given), the melting point lay in the range of 143 to 148 °C.

Compound `O=Cc1ccc(-c2ncc(Cl)cn2)cc1` yielded a melting point of 186 °C.

As to `N#CCCN1CCN(c2cc3cccnc3c(-c3cccc(C#N)c3)n2)CC1`, the melting point is > 200 °C.
